The source of these data is article PMC7763263, “Parameters for Irreversible Inactivation of Monoamine Oxidase” (Molecules, 2020).

Read-outs that look alike come from different tables or passages of the source. Marks after values point to notes of the source that are not given here.

The target of test [1] is T1, MAO-A (Homo sapiens, UniProt P21397).
T1 sequence (P21397 1-527): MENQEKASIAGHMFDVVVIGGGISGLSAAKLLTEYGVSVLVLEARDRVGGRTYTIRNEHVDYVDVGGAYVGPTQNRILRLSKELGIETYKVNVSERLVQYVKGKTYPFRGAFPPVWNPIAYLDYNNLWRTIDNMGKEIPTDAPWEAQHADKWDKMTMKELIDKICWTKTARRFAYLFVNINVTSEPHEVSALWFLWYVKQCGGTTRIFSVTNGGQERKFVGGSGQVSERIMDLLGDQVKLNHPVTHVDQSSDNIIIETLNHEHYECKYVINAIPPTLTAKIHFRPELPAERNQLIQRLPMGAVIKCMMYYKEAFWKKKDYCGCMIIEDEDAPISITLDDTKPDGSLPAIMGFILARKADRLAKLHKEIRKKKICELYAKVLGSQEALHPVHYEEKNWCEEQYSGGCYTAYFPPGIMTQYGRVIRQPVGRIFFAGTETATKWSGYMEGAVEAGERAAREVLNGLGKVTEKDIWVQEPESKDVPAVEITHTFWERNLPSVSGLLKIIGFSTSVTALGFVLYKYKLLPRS
Further details: purchased Sigma-Aldrich (Dorset, UK); host or cells: insect cells (membranes). The note with it: ratio of IC50 without/with 30 min preincubation; ref Malcomson et al. [40]; cited from earlier work.

Test [2] concerns the target T2, human MAO-B (Homo sapiens, UniProt P27338).
T2 construct: purchased Sigma-Aldrich (Dorset, UK); host or cells: insect cells (membranes)
T2 sequence (P27338 1-520): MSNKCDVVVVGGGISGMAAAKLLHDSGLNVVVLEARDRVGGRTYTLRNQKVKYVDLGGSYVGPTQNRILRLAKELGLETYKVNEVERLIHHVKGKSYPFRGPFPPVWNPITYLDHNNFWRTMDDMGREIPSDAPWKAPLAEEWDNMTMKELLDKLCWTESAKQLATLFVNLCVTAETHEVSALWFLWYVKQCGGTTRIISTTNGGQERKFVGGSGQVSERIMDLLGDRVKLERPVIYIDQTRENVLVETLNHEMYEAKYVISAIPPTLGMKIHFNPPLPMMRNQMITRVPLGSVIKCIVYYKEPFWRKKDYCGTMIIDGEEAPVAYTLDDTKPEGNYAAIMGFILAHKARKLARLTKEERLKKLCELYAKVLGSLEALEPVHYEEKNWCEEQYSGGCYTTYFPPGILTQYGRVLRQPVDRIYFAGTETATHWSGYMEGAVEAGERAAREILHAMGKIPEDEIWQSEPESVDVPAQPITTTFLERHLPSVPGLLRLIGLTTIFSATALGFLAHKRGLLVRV
The note with it: ratio of IC50 without/with 30 min preincubation; ref Malcomson et al. [40]; cited from earlier work.

On the set-up of test [3]: method as in PMID 16848670. The note with it: depression; cited from earlier work.
A further test concerns MAO. The conditions noted are these: cited from earlier work.
Test [4] deals with T1, MAO-A. Description: Time-dependent inactivation, Kitz-Wilson analysis. Type of test: biochemical. Also on record: purchased Sigma-Aldrich (Dorset, UK); host or cells: insect cells (membranes). The protocol:
(§1) Rates (as relative fluorescence units per second, rfu/s) were analyzed as the log of the fractional activity remaining compared to control against time to obtain kobs.

In another test the target is T3, purified human MAO-A (Homo sapiens, UniProt P21397).
T3 construct: made in house; host or cells: Saccharomyces cerevisiae
T3 sequence (P21397 1-527): T1 sequence (P21397 1-527)
Kind of test: Anaerobic spectral kinetics of flavin reduction and adduct formation (stopped-flow / timed spectra). The conditions noted are these: for rate of anaerobic reduction of FAD (absorbance decrease at 495 nm) / rate of adduct formation (absorbance increase at 410 nm): purified MAO-A. Type of test: biochemical. The protocol: Purified human MAO-A was dialyzed against 50 mM HEPES pH 7.5 for 1 h and concentrated to at least 40 μM before loading into the rapid-mixing device syringes. MAO-A (40 μM) was mixed with an equal volume of 50 mM HEPES pH 7.5 containing excess inactivating compound in the stopped-flow spectrophotometer (Applied Photophysics SX20) at 30 °C. For anaerobic experiments, the system was flushed with 10 mM dithionite before rinsing well with buffer containing 30 mM glucose, 1 U/mL glucose oxidase, and 24 U/mL catalase. Both the MAO-A and the compound to be added were flushed with argon before the addition of 30 mM glucose, 1 U/mL glucose oxidase, and 24 U/mL catalase to ensure anaerobiosis during the experiment. Absorbance changes were measured in triplicate at three wavelengths (410, 456, and 495 nm). The absorbance acquisition rate was set at 1000 Hz for the interval 0–0.5 s and 4 Hz for the interval 0.5–1000 s. The absorbance changes were analyzed using single or double exponential fits in the built-in software as appropriate.
Figure 7 Time courses for absorbance changes in MAO-A incubated anaerobically with propargylamine inactivators.

For test [5], the target named is T2, human MAO-B. Kind of test: Time-dependent inactivation, Kitz-Wilson analysis. It is filed as biochemical. The note with it: inactivation constant. As to the method: as §1
The target of test [6] is T1, MAO-A. The conditions noted are these: read-out: MAO-A IC50 AR Assay; without preincubation, tyramine 2× KM (0.8 mM); mean ± SD of 2–4 experiments. As to the method: (§2) The binding of these mechanism-based inhibitors can be assessed by measuring the inhibition without preincubation, adding the enzyme last to the assay mixture with both substrate and inhibitor. […] The IC50 is not an absolute parameter, but rather is a comparative measure that depends on the type of inhibition and the substrate concentration.
(§3) The direct spectrophotometric assay using purified MAO-A (30–50 nM) was added last to a 1 mL final volume of 50 mM potassium phosphate pH 7.5 containing inhibitor (0–100 μM) and 0.3 mM kynuramine (equivalent to 2× KM). The increase in absorbance was followed at 314 nm in a Shimadzu UV-2101 spectrophotometer. The coupled assay in black 96-well plates (Eppendorf UK Ltd., Stevenage, UK) used tyramine, Ampliflu™ Red (AR), horseradish peroxidase (HRP) and membrane-bound human MAO-A and MAO-B purchased from Sigma-Aldrich (Dorset, UK). Final concentrations were 50 μM AR, 1 U/mL HRP, and 1 nM enzyme. The substrate was tyramine either at 2× KM (0.8 mM for MAO-A or 0.32 mM for MAO-B) for reversible binding or at 1 mM to assess remaining active MAO after incubation with the inactivators.
(§4) Ki values were calculated using the global Michaelis–Menten analysis in PRISM from initial rate data for 6 substrate concentrations (tyramine) at 5 inhibitor concentrations.

In test [7] the target is T1, MAO-A. The note with it: read-out: MAO-A Ki Direct; ref Esteban et al. [18]; cited from earlier work.
Test [8] concerns the target T2, human MAO-B. It is filed as biochemical. The conditions noted are these: without preincubation, tyramine 2× KM (0.32 mM); mean ± SD of 2–4 experiments; read-out: MAO-B IC50 AR Assay. The protocol:
as §2, §3, §4

The target of test [9] is T1, MAO-A. Description: IC50 after 30 min preincubation, coupled assay with saturating substrate. Type of test: biochemical. Also on record: purchased Sigma-Aldrich (Dorset, UK); host or cells: insect cells (membranes). The conditions noted are these: ratio of IC50 without/with 30 min preincubation. The protocol: (§5) The IC50 determined after a fixed incubation time has become a routine way to compare inhibition by new inactivators, although both binding and the rate of inactivator oxidation influence the measurement.
as §3

The target of test [10] is T2, human MAO-B. It is filed as biochemical. The protocol: as §5, §3
The target in test [11] is T1, MAO-A. Kind of test: Partition ratio by long-term incubation. Type of test: biochemical. Further details: made in house; host or cells: Saccharomyces cerevisiae. The conditions noted are these: incubation at 30 °C up to 10 days.
For test [12], the target named is T1, MAO-A. Also on record: purchased Sigma-Aldrich (Dorset, UK); host or cells: insect cells (membranes); method as in PMID 27977122. The note with it: cited from earlier work.
Test [13] addresses T1, MAO-A. Kind of test: Activity remaining or recovered after anaerobic incubation with inactivator. Also on record: made in house; host or cells: Saccharomyces cerevisiae. Type of test: biochemical. From the text: MAO-A was made anaerobic by cycling with vacuum and argon. […] After the admission of oxygen to the cuvette, the 420 nm absorbance increased rapidly, accompanied by loss of activity.
In order to find a cause for the 600 nm absorbance, we considered whether oxidation could occur at either carbon adjacent to the amine nitrogen in MAO-A. (MAO-B is inactivated by F2MPA [19], so presumably, the normal allenyl imine product is formed by oxidation at the carbon between the amine and the propargyl group, CαP.) The alternative furfuryl imine product that would result from oxidation at the carbon on the other side of the amine nitrogen (between the amine and the furan ring, CαF) is shown in Scheme 2. Chemical analysis was attempted to detect the putative products of oxidation and molecular modeling to explore the interactions of F2MPA with MAO-A and MAO-B.

Test [14] has as its target T2, human MAO-B. The note with it: cited from earlier work.
[15] abbreviates: Figure S4, anaerobic stopped-flow, 30 C.

For the molecule `N[C@H]1C[C@@H]1c1ccccc1` (racemic) [Tranylcypromine], at MAO-A [1], the “MAO-A Enhancement” value was 100 ^a. In addition, the “MAO-B Enhancement” value at human MAO-B [2] is reported as 54.7 ^a. Besides, in test [3], the patient response rates result was “over 50%”.

In the case of `N[C@H]1C[C@@H]1c1ccccc1` [1S,2R-trans-2-phenylcyclopropylamine], the “times more potent in vitro than the other enantiomer” value with MAO is on record as 60 times.

What is called IC50 is the midpoint of a concentration-inhibition curve. Take `C#CCN(C)Cc1cc2cc(OCCCC3CCN(Cc4ccccc4)CC3)ccc2n1C` [ASS234, N-[[5-[3-(1-benzylpiperidin-4-yl)propoxy]-1-methylindol-2-yl]methyl]-N-methylprop-2-yn-1-amine]: the results for the Ki at MAO-A [4], on human MAO-B [5] and on MAO-A [7] were 45 nM, 1740 nM and 53 ± 14 nM, respectively. The “rate of anaerobic reduction of FAD (absorbance decrease at 495 nm)” value on purified human MAO-A (anaerobic) is 3.36 min⁻¹. Besides, the IC50 at MAO-A [6] is 33 ± 3 nM; on human MAO-B [8] it was 3.2 ± 0.41 µM; at human MAO-B [10] (read-out: MAO-B IC50 after 30 min preincubation, human MAO in insect cell membranes, saturating substrate) it was 120 ± 20 nM. Moreover, the “MAO-A Enhancement” value on MAO-A [9] is recorded as 122.

As for `C#CCN(C)Cc1ccco1` [F2MPA, N-(furan-2-ylmethyl)-N-methylprop-2-yn-1-amine], the partition ratio on MAO-A [11] is above 1000. For the same molecule, the “time for completion of biphasic decrease in absorbance at 495 nm” value at purified human MAO-A (F2MPA 2 mM, MAO-A […] μM, anaerobic) was “more than 21 h”. In addition, the “rate of anaerobic reduction of FAD (absorbance decrease at 495 nm)” value at purified human MAO-A (anaerobic) amounted to 0.0034 ± 0.0009 min⁻¹. Further, at MAO-A [12], the MAO-A kinact is 0.087 min⁻¹ and the “MAO-A kinact/KI” value is given as 0.0005 min^−1μM^−1. For the same molecule, the Ki at MAO-A [12] (inactivation constant) was 187 µM. The activity retained on MAO-A [13] (MAO-A incubated anaerobically […] with 0.5 mM) was 7%. The “activity restored by overnight aerobic dialysis” value at MAO-A [13] (after […] anaerobic incubation with 0.5 mM) came to 88%. In addition, at human MAO-B [14], the MAO-B kinact is 0.61 min⁻¹ and the “MAO-B kinact/KI” value is given as 0.0045 min^−1μM^−1. Moreover, the Ki on human MAO-B [14] (inactivation constant) was 135 µM.

As for `C#CCN(C)Cc1ccccc1` [Pargyline], on purified human MAO-A (setting [15]), the “k, 410 nm (adduct)” value stood at 0.0043 s⁻¹ and the “k, 485 nm (reduction)” value amounted to 0.0047 s⁻¹. Moreover, on purified human MAO-A (anaerobic), the “rate of adduct formation (absorbance increase at 410 nm)” value was 0.26 ± 0.03 min⁻¹ and the “rate of anaerobic reduction of FAD (absorbance decrease at 495 nm)” value worked out at 0.28 ± 0.02 min⁻¹. Further, the “MAO-A Enhancement” value on MAO-A [9] was 48. At human MAO-B [10] (ratio of IC50 without/with 30 min preincubation), the “MAO-B Enhancement” value turned out to be 292.

Consider `NNCCc1ccccc1` [Phenelzine], for which the patient response rates result in test [3] is reported as “over 50%”.

`C#CCN(C)[C@H](C)Cc1ccccc1` [Selegiline, (2R)-N-methyl-1-phenyl-N-prop-2-ynylpropan-2-amine]: on purified human MAO-A (anaerobic), the “rate of adduct formation (absorbance increase at 410 nm)” value turned out to be 0.016 ± 0.003 min⁻¹ and the “rate of anaerobic reduction of FAD (absorbance decrease at 495 nm)” value amounted to 0.019 ± 0.002 min⁻¹. Further, the “MAO-A Enhancement” value at MAO-A [9] turned out to be 357.
